Test results as given in US7125903B1 (Aventis Pharmaceuticals Inc., priority 1999, dated 2006).
Where a name gives a salt, the structure may show the parent alone. Read-outs that look alike come from different tables or passages of the source.

Experiments:
[1] = system: MK801 Stereotypy; test: MK-801 Stereotypy in Mice; type: in vivo; details: Mus musculus, read-out: Antagonism of MK801 Stereotypy % Inhib. @ 20 mg/kg (route)
Method: Mk-801 dose-dependently induces characteristic stereotypy marked by locomotion and falling behavior. This MK-801 induced behavior can be antagonized by novel neuroleptic agents. This assay can also assess time course effects following drug administration.
CD-1 or C57 male mice are individually placed in activity boxes (8 mice/drug) and allowed to acclimate for 60 minutes. The mice are then administered test compounds either i.p., s.c., or p.o., at 15, 30, or 60 minutes prior to MK-801 (0.2 mg/kg) administration. Mice are observed for the presence of locomotion and falling behaviors 15 minutes following MK-801. For the duration of action studies the test compounds are administered i.p., s.c., or p.o., at 30, 60, 120, 180, and 240 minutes prior to MK-801 administration.

[2] = biological target: T1, human D4 receptor (D4.2 sub-type) (Homo sapiens, UniProt P21917, DEL265-296); test: D4 receptor binding assay (3H-spiperone displacement); details: for Ki: 3H-spiperone 0.25 nM, membranes of HEK 298 cells with human D4.2, Cheng-Prusoff from IC50, read-out: D4 RBA Ki; for inhibition at 1 µM: 1 μM test compound, inhibition of 3H-spiperone binding, read-out: D4 RBA % Inhib. @ 1 μM
T1 construct: expressed in transfected cells
T1 sequence (P21917 with tags, fused parts or gaps DEL265-296): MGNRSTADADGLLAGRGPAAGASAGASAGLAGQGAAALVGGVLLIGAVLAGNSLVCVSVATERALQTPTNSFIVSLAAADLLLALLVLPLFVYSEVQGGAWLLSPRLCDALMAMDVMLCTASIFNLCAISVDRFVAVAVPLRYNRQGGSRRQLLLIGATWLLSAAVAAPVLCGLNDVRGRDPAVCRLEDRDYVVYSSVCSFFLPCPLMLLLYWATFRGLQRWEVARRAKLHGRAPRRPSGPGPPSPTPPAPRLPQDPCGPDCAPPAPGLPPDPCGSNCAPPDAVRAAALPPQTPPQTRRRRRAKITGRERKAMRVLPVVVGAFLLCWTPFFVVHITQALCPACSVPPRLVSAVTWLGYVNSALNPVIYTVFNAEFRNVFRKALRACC
Method: D4 receptor-binding affinities of the compounds were evaluated according to their ability to reduce binding of ^3H-spiperone as compared to the reference compound clozapine. The potency of the test compound to reduce ^3H-spiperone binding directly correlated to its binding affinity for the receptor.
[…] (human embryonic kidney) cells stably transfected with human D4 receptor (D4.2 sub-type) were grown in NUNC cell factories for 5 days (75% confluency) without a media change and removed with versene (approximately 19 mg of cells per cell factory tray). The cells were then centrifuged in a Sorval centrifuge for 10 min, 5000 rpm (GS3 rotor) and the pellets quickly frozen in liquid nitrogen and stored at −80° C. until used in binding assay. When used in the assay, cells were thawed on ice for 20 min and then 10 mL of incubation buffer (50 mM Tris, 1 mM EDTA, 4 mM MgCl2, 5 mM KCl, 1.5 mM CaCl2, 120 mM NaCl, pH 7.4) was added. The cells were then vortexed to resuspend pellet and homogenized with a Kinematica, CH-6010 Kriens-LU, homogenizer for 15 seconds at setting 7. Concentration of receptor protein was determined using the Pierce BCA assay.
The incubation was started by the addition of 100 μl (50 μg protein) membrane homogenate to a solution of 300 μl incubation buffer and 100 μl (0.25 nM final conc.) ^3H-spiperone (90 Ci/mmol, Amersham, diluted in borosilicate glass vial) in 96-well polypropylene plates (1 mL per well). The plates were vortexed and incubated at room temperature for 90 minutes. The binding reaction was stopped by filtering using a Packard Harvester. The samples were filtered under vacuum over glass fibre filter plates (Whatman GF/B) presoaked for 2 hours in 0.3% polyethylenimine (PEI) in 50 mM Tris buffer (pH 7.4). The filters were then washed 6 times with 7 mL ice cold 50 mM Tris buffer (pH 7.4). The filter plates were dried overnight and 35 μl of Microscint-O (Packard) was added. The plates were sealed and counted in the Packard Top Count (3 minutes per well).
The incubation was started by the addition of 100 μl (50 μg protein) membrane homogenate to a solution of 200 μl incubation buffer, 100 μl ^3H-spiperone (90 Ci/mmol, Amersham, diluted in borosilicate glass vial to 0.25 nM final conc.) and 100 μl (30 μM final conc.) of fresh dopamine (Research Biochemicals Inc., light protected and dissolved in incubation buffer) in 96-well polypropylene plates (1 mL per well). The plates were vortexed and incubated at room temperature for 90 minutes at which time the binding reaction was stopped by filtering. The filters were washed and counted using the same procedure as in the total binding assay described above to give the nonspecific binding value (NSB).
The incubation was started by the addition, in 96-well polypropylene plates (1 mL per well), of 100 μl (50 μg protein) membrane homogenate to a solution of 200 μl incubation buffer, 100 μl (0.25 nM final conc.) ^3H-spiperone (90 Ci/mmol, Amersham, diluted in borosilicate glass vial) and 100 μl of test compound that was prepared from 1 mM stock dissolved in DMSO and stored at −20° C. in polypropylene cryogenic storage vials until dilution in incubation buffer in 96-well polypropylene plates. The plates were vortexed and incubated at room temperature for 90 minutes at which time the binding reaction was stopped by filtering. The filters were washed and counted using the same procedure as in the total binding assay described above to give the displacement binding value (BD).
The test compounds were initially assayed at 1 and 0.1 μM and then at a range of concentrations chosen such that the middle dose would cause about 50% inhibition of ^3H-spiperone binding. Specific binding in the absence of test compound (B0) was the difference of total binding (BT) minus non-specific binding (NSB) and similarly specific binding (in the presence of test compound) (B) was the difference of displacement binding (BD) minus non-specific binding (NSB). […]

[3] = biological target: human D4 receptor with seven repeat units (D4.7 variant); details: read-out: EC50 of dopamine; cited from earlier work
[4] = 20 mg/kg ip, mice, MK-801 0.2 mg/kg
[5] = 20 mg/kg sc, mice, MK-801 0.2 mg/kg
[6] = 20 mg/kg po, mice, MK-801 0.2 mg/kg

| SMILES | Ki [2] | melting point | other results |
| --- | --- | --- | --- |
| C[C@](O)(CNCc1ccccc1)COc1cccc(-c2noc3ccsc23)c1 [Compound 3, (2S)-(+)-1-benzylamino-2-methyl-3-(3-thieno[2,3-d]isoxazol-3-yl-phenoxy)propan-2-ol maleate] | 3.3 nM | – | inhibition in vivo at 20 mg/kg [1, 4]: 37.5% |
| C[C@@](O)(CNCc1ccccc1)COc1cccc(-c2noc3ccsc23)c1 [Compound 4, (2R)-(−)-1-benzylamino-2-methyl-3-(3-thieno[2,3-d]isoxazol-3-yl-phenoxy)propan-2-ol maleate] | 37.7 nM | – | inhibition in vivo at 20 mg/kg [1, 4]: 12.5% |
| C[C@@](O)(CNCc1cccs1)COc1cccc(-c2noc3ccsc23)c1.O=C(O)/C=C\C(=O)O [Compound 5, (2R)-2-methyl-1-(3-thieno[2,3-d]isoxazol-3-yl-phenoxy)-3-[thienophen-2-ylmethyl)-amino-propan-2-ol maleate] | – | 51 to 52 °C | inhibition in vivo at 20 mg/kg [1, 4]: 37.5% |
| O[C@H](CNCc1cccs1)COc1cccc(-c2noc3ccsc23)c1 [Compound 6, (2R)-1-(3-thieno[2,3-d]isoxazol-3-yl-phenoxy)-3-[(thiophen-2-ylmethyl)amino]propan-2-ol L-tartrate] | 12.6 nM | – | inhibition in vivo at 20 mg/kg [1, 4]: 25% |
| O[C@H](CNCc1ccsc1)COc1cccc(-c2noc3ccsc23)c1 [Example 9] | 7.6 nM | – | inhibition in vivo at 20 mg/kg [1, 4]: 12% |
| C[C@@](O)(CNCc1ccc(F)cc1)COc1cccc(-c2noc3ccsc23)c1 [Example 15] | 11 nM | – | inhibition in vivo at 20 mg/kg [1, 5]: 50% |
| OC(CNC[C@@H](O)COc1cccc(-c2noc3ccsc23)c1)c1ccccc1 (stereo partly drawn) [Example 27] | 131 nM | – | inhibition in vivo at 20 mg/kg [1, 5]: 75% |
| O[C@@H](COc1cccc(-c2noc3ccsc23)c1)CN1CCN(c2ccccc2Cl)CC1 [Example 46, (2R)-1-[4-(2-chlorophenyl)piperazin-1-yl]-3-(3-thieno[2,3-d]isoxazol-3-yl-phenoxy)-propan-2-ol] | – | 83 to 86 °C | – |
| O[C@@H](COc1cccc(-c2noc3ccsc23)c1)CN1CCN(c2cccc(Cl)c2)CC1 [Example 47, (2R)-1-[4-(3-chlorophenyl)piperazin-1-yl]-3-(3-thieno[2,3-d]isoxazol-3-yl-phenoxy)-propan-2-ol] | – | 118 to 120 °C | – |
| COc1ccc(N2CCN(C[C@@H](O)COc3cccc(-c4noc5ccsc45)c3)CC2)cc1 [Example 48, (2R)-1-[4-(4-methoxyphenyl)piperazin-1-yl]-3-(3-thieno[2,3-d]isoxazol-3-yl-phenoxy)-propan-2-ol] | – | 110 to 113 °C | – |
| O[C@@H](COc1cccc(-c2noc3ccsc23)c1)CN1CCN(c2ccccc2)CC1 [Example 49, (2R)-1-(4-phenylpiperazin-1-yl)-3-(3-thieno[2,3-d]isoxazol-3-yl-phenoxy)propan-2-ol] | – | 127 to 129 °C | – |
| N#Cc1ccccc1N1CCN(C[C@@H](O)COc2cccc(-c3noc4ccsc34)c2)CC1 [Example 50, 2-{4-[(R)-2-hydroxy-3-(3-thieno[2,3-d]isoxazol-3-yl-phenoxy)-propyl]piperazin-1-yl}benzonitrile] | – | 87 to 89 °C | – |
| O[C@@H](COc1cccc(-c2noc3ccsc23)c1)CN1CCN(c2ccccc2C(F)(F)F)CC1 [Example 52, (2R)-1-(3-thieno[2,3-d]isoxazol-3-yl-phenoxy)-3-[4-(2-trifluoromethylphenyl)-piperazin-1-yl]propan-2-ol] | – | 77 to 79 °C | – |
| C[C@](O)(CNCc1ccccc1Cl)COc1cccc(-c2noc3ccsc23)c1 [Example 53] | – | – | inhibition in vivo at 20 mg/kg [1, 6]: 50%; inhibition at 1 µM [2]: 96% |
| C[C@](O)(CNCc1ccc(Cl)c(Cl)c1)COc1cccc(-c2noc3ccsc23)c1 [Example 54] | 13 nM | – | inhibition in vivo at 20 mg/kg [1, 6]: 62.5% |
| Cc1ccc(CNC[C@](C)(O)COc2cccc(-c3noc4ccsc34)c2)cc1 [Example 58, hydrochloride] | – | – | inhibition in vivo at 20 mg/kg ([1]; po): 37.5%; inhibition at 1 µM [2]: 100% |
| NCCc1ccc(O)c(O)c1 [dopamine] | – | – | EC50 [3]: 40 nM |
